Measurements from PubChem BioAssay (NCI).
Where “and” joins values, the source holds several entries; their conditions need not be identical. Equal values may be shown once.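 The compound was tested at five concentrations on cells cultured in 96-well plates, with a 48-hour exposure period. The concentration for 50% growth inhibition is given as GI50. TGI denotes the concentration required for complete inhibition of growth.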

What was measured:
Experiment in all cases: inhibition of tumour cell growth, NCI panel, 48 h
[1] = test system: EKVX NSCLC
[2] = test system: HOP-92 NSCLC
[3] = test system: UO-31 renal
[4] = test system: NCI-H226 lung
[5] = test system: MOLT-4 leukemia
[6] = test system: HL-60(TB) leukemia
[7] = test system: HT29 colon
[8] = test system: SK-MEL-28 melanoma
[9] = test system: K-562 leukemia
[10] = test system: HS 578T breast
[11] = test system: HCT-15 colon
[12] = test system: CCRF-CEM leukemia
[13] = test system: MDA-MB-435
[14] = test system: 786-0 renal
[15] = test system: NCI-H460 lung
[16] = test system: SF-295 CNS
[17] = test system: UACC-257 melanoma
[18] = test system: MALME-3M melanoma
[19] = test system: RXF 393 renal
[20] = test system: SNB-75 CNS
[21] = test system: SK-OV-3 ovarian
[22] = test system: OVCAR-8 ovarian
[23] = test system: DU-145 prostate
[24] = test system: SF-539 CNS
[25] = test system: TK-10 renal
[26] = test system: RPMI-8226 leukemia
[27] = test system: OVCAR-5 ovarian
[28] = test system: UACC-62 melanoma
[29] = test system: ACHN renal
[30] = test system: MDA-MB-231 breast
[31] = test system: OVCAR-3 ovarian
[32] = test system: T-47D breast
[33] = test system: SN12C renal
[34] = test system: KM12 colon
[35] = test system: A549 NSCLC
[36] = test system: LOX IMVI melanoma
[37] = test system: SW-620 colon
[38] = test system: HCT-116 colon
[39] = test system: U251 CNS
[40] = test system: A498 renal
[41] = test system: PC-3 prostate
[42] = test system: CAKI-1 renal
[43] = test system: BT-549 breast
[44] = test system: NCI/ADR-RES ovarian
[45] = test system: NCI-H23 lung
[46] = test system: SF-268 CNS
[47] = test system: HOP-62 NSCLC
[48] = test system: M14 melanoma
[49] = test system: IGROV1 ovarian
[50] = test system: OVCAR-4 ovarian
[51] = test system: NCI-H522 lung
[52] = test system: SK-MEL-2 melanoma
[53] = test system: SK-MEL-5 melanoma
[54] = test system: HCC-2998 colon
[55] = test system: SNB-19 CNS
[56] = test system: MCF7 breast

Q: Which results are given for `CC(=O)c1c(-c2cccc3ccccc23)c(C#N)c(=S)n(C2OC(CO)C(O)C(O)C2O)c1-c1ccccc1` (configuration not stated)?
A: TGI [1]: > 100 µM; TGI [2]: > 100 µM; GI50 [3]: 5.09 µM and 1.59 µM; TGI [3]: 23.8 µM and 3.54 µM

Q: How did the TGI [4] turn out when `CCC[C@H](C)C[C@H](C)C[C@H](C)/C=C(\C)[C@@H](O)[C@@H](C)C(=O)CC` was run?
A: 42.6 µM

Q: And the TGI [5]?
A: 43.3 µM

Q: And the TGI [6]?
A: 36.2 µM

Q: What about the TGI [7] of the same compound?
A: 37 µM

Q: And the TGI [1]?
A: 34.7 µM

Q: And the TGI [8]?
A: 33.4 µM

Q: And the TGI [9]?
A: 38 µM

Q: And the TGI [2]?
A: 38.3 µM

Q: What about the TGI [10] of the same compound?
A: 51.8 µM

Q: What about the TGI [3] of the same compound?
A: 41.7 µM

Q: And the TGI [11]?
A: 41.7 µM

Q: And the TGI [12]?
A: 52.8 µM

Q: What about the TGI [13] of the same compound?
A: 35.7 µM

Q: What about the TGI [14] of the same compound?
A: 35.7 µM

Q: And the TGI [15]?
A: 53.4 µM

Q: What about the TGI [16] of the same compound?
A: 37.9 µM

Q: What about the TGI [17] of the same compound?
A: 38.9 µM

Q: And the TGI [18]?
A: 33.6 µM

Q: What about the TGI [19] of the same compound?
A: 40 µM

Q: What about the TGI [20] of the same compound?
A: > 100 µM

Q: And the TGI [21]?
A: > 100 µM

Q: And the TGI [22]?
A: 39.4 µM

Q: And the TGI [23]?
A: 43.4 µM

Q: What about the TGI [24] of the same compound?
A: 37 µM

Q: And the TGI [25]?
A: 38.3 µM

Q: What about the TGI [26] of the same compound?
A: 49 µM

Q: And the TGI [27]?
A: 34.1 µM

Q: And the TGI [28]?
A: 33.8 µM

Q: What about the TGI [29] of the same compound?
A: 39 µM

Q: And the TGI [30]?
A: 44.6 µM

Q: What about the TGI [31] of the same compound?
A: 34.4 µM

Q: And the TGI [32]?
A: 50.8 µM

Q: And the TGI [33]?
A: 35.5 µM

Q: What about the TGI [34] of the same compound?
A: 42 µM

Q: And the TGI [35]?
A: 39.4 µM

Q: And the TGI [36]?
A: 37.8 µM

Q: What about the TGI [37] of the same compound?
A: 43 µM

Q: What about the TGI [38] of the same compound?
A: 33.9 µM

Q: And the TGI [39]?
A: 44.7 µM

Q: And the TGI [40]?
A: 42.6 µM

Q: What about the TGI [41] of the same compound?
A: 37.2 µM

Q: And the TGI [42]?
A: 37.4 µM

Q: What about the TGI [43] of the same compound?
A: 44.1 µM

Q: And the TGI [44]?
A: 30.9 µM

Q: What about the TGI [45] of the same compound?
A: 33.3 µM

Q: And the TGI [46]?
A: 39.6 µM

Q: What about the TGI [47] of the same compound?
A: 35.2 µM

Q: And the TGI [48]?
A: 35.7 µM

Q: And the TGI [49]?
A: 36.2 µM

Q: And the TGI [50]?
A: 36.8 µM

Q: And the TGI [51]?
A: 36.4 µM

Q: And the TGI [52]?
A: 44.7 µM

Q: What about the TGI [53] of the same compound?
A: 36.1 µM

Q: What about the TGI [54] of the same compound?
A: 31.2 µM

Q: What about the TGI [55] of the same compound?
A: 36.1 µM

Q: And the TGI [56]?
A: 42.7 µM

Q: Which results are given for `OC(c1cc2cc(Cl)c(Cl)cc2c2cc(C(F)(F)F)ccc12)C1CCCCN1` (configuration not stated)?
A: GI50 [5]: 1.59 µM; TGI [5]: 3.32 µM; GI50 [6]: 2.28 µM; TGI [6]: 4.07 µM; GI50 [10]: 1.54 µM; TGI [10]: 3.27 µM; GI50 [3]: 1.52 µM; TGI [3]: 3.16 µM; GI50 [22]: 1.67 µM; TGI [22]: 3.21 µM; GI50 [23]: 1.94 µM; TGI [23]: 3.36 µM; GI50 [27]: 1.61 µM; TGI [27]: 3.1 µM; GI50 [35]: 1.68 µM; TGI [35]: 3.18 µM; GI50 [39]: 1.72 µM; TGI [39]: 3.21 µM; GI50 [40]: 1.36 µM; TGI [40]: 2.69 µM; GI50 [42]: 2 µM; TGI [42]: 4.32 µM
